The subject of one experiment is RS4; 11. Put plainly: Cell viability assay (MTS) in RS4; 11 cells. The experiment is classed as cell-based. As to conditions: Homo sapiens, RS4-11. As to the method: (§1) Acute lymphoblastic leukemia cells (MOLT-4 and RS4; 11) were incubated with increasing concentrations of Bcl-xL degraders for 48 h. Cell viability was measured by tetrazolium-based MTS assay.
The next experiment relates to MOLT-4. Put plainly: Cell viability assay (MTS) in MOLT-4 cells. The class given is cell-based. As to conditions: Homo sapiens, MOLT-4. As to the method:
as §1

Where [1] appears, read: Table 2, 48 hr, MTS, read-out: Anti-Cancer Activity IC50 (48 hr) RS4, 11.
The mark [2] stands for this setting: Table 2, 48 hr, MTS, read-out: Anti-Cancer Activity IC50 (48 hr) MOLT-4.

Here are results for five molecules from patent US20250154141A1 (University of Florida Research Foundation, Incorporated, priority 2021, published 2025).

As a reminder, the IC50 is the concentration needed to halve the response being measured.

Where two headings read alike, the source gives them in different places.

For the molecule `Cc1ncsc1-c1ccc([C@H](C)NC(=O)[C@@H]2C[C@@H](O)CN2C(=O)[C@@H](NC(=O)CCCCCCC(=O)N2CCN(C[C@]3(C)CCC(c4ccc(Cl)cc4)=C(CN4CCN(c5ccc(C(=O)NS(=O)(=O)c6ccc(N[C@H](CCN7CCCOCC7)CSc7ccccc7)c(S(=O)(=O)C(F)(F)F)c6)cc5)CC4)C3)CC2)C(C)(C)C)cc1` [Compound 59, (2S,4R)-1-((S)-2-(8-(4-(((R)-6-((4-(4-(((4-(((R)-4-(1,4-oxazepan-4-yl)-1-(phenylthio)butan-2-yl)amino)-3-((trifluoromethyl)sulfonyl)phenyl)sulfonyl)carbamoyl)phenyl)piperazin-1-yl)methyl)-4′-chloro-4-methyl-2,3,4,5-tetrahydro-[1,1′-biphenyl]-4-yl)methyl)piperazin-1-yl)-8-oxooctanamido)-3,3-dimethylbutanoyl)-4-hydroxy-N—((S)-1-(4-(4-methylthiazol-5-yl)phenyl)ethyl)pyrrolidine-2-carboxamide], the IC50 in the experiment with RS4; 11 (setting [1]) was under 20 nM; with RS4; 11 (Table 4, 48 h, read-out: RS4 48 h IC50), 1.6 nM; in the experiment with MOLT-4 (setting [2]), under 20 nM; in the experiment with MOLT-4 (Table 4, 48 h, read-out: MOLT-4 48 h IC50), 0.7 nM.

Turning to `Cc1ncsc1-c1ccc([C@H](C)NC(=O)[C@@H]2C[C@@H](O)CN2C(=O)[C@@H](NC(=O)CCCCCCC(=O)N2CCN(C[C@]3(C)CCC(c4ccc(Cl)cc4)=C(CN4CCN(c5ccc(C(=O)NS(=O)(=O)c6ccc(N[C@H](CCN7CCCCCC7)CSc7ccccc7)c(S(=O)(=O)C(F)(F)F)c6)cc5)CC4)C3)CC2)C(C)(C)C)cc1` [Compound 60, (2S,4R)-1-((S)-2-(8-(4-(((R)-6-((4-(4-(((4-(((R)-4-(azepan-1-yl)-1-(phenylthio)butan-2-yl)amino)-3-((trifluoromethyl)sulfonyl)phenyl)sulfonyl)carbamoyl)phenyl)piperazin-1-yl)methyl)-4′-chloro-4-methyl-2,3,4,5-tetrahydro-[1,1′-biphenyl]-4-yl)methyl)piperazin-1-yl)-8-oxooctanamido)-3,3-dimethylbutanoyl)-4-hydroxy-N—((S)-1-(4-(4-methylthiazol-5-yl)phenyl)ethyl)pyrrolidine-2-carboxamide], the IC50 in the experiment with RS4; 11 (setting [1]) and in the experiment on MOLT-4 (setting [2]) was under 20 nM each time.

As for `Cc1ncsc1-c1ccc([C@H](C)NC(=O)[C@@H]2C[C@@H](O)CN2C(=O)[C@@H](NC(=O)CCCCCCC(=O)N2CCN(CC3(C)CCC(c4ccc(Cl)cc4)=C(CN4CCN(c5ccc(C(=O)NS(=O)(=O)c6ccc(N[C@H](CCN(C)C)CSc7ccccc7)c(S(=O)(=O)C(F)(F)F)c6)cc5)CC4)C3)CC2)C(C)(C)C)cc1` (stereo partly drawn) [Compound 61], the IC50 in the experiment with RS4; 11 (setting [1]) and with MOLT-4 (setting [2]) was under 20 nM each time.

As for `CCN(CCO)CC[C@H](CSc1ccccc1)Nc1ccc(S(=O)(=O)NC(=O)c2ccc(N3CCN(CC4=C(c5ccc(Cl)cc5)CCC(C)(CN5CCN(C(=O)CCCCCCC(=O)N[C@H](C(=O)N6C[C@H](O)C[C@H]6C(=O)N[C@@H](C)c6ccc(-c7scnc7C)cc6)C(C)(C)C)CC5)C4)CC3)cc2)cc1S(=O)(=O)C(F)(F)F` (stereo partly drawn) [Compound 63, (2S,4R)-1-((2S)-2-(8-(4-((4′-chloro-6-((4-(4-(((4-(((R)-4-(ethyl(2-hydroxyethyl)amino)-1-(phenylthio)butan-2-yl)amino)-3-((trifluoromethyl)sulfonyl)phenyl)sulfonyl)carbamoyl)phenyl)piperazin-1-yl)methyl)-4-methyl-2,3,4,5-tetrahydro-[1,1′-biphenyl]-4-yl)methyl)piperazin-1-yl)-8-oxooctanamido)-3,3-dimethylbutanoyl)-4-hydroxy-N—((S)-1-(4-(4-methylthiazol-5-yl)phenyl)ethyl)pyrrolidine-2-carboxamide], the figures for the IC50 in the experiment on RS4; 11 (setting [1]) and with MOLT-4 (setting [2]) were under 20 nM and 20 to 100 nM, respectively.

On to `Cc1ncsc1-c1ccc([C@H](C)NC(=O)[C@@H]2C[C@@H](O)CN2C(=O)[C@@H](NC(=O)CCCCCCC(=O)N2CCN(C[C@]3(C)CCC(c4ccc(Cl)cc4)=C(CN4CCN(c5ccc(C(=O)NS(=O)(=O)c6ccc(N[C@H](CCN7CC8CCC7C8)CSc7ccccc7)c(S(=O)(=O)C(F)(F)F)c6)cc5)CC4)C3)CC2)C(C)(C)C)cc1` (stereo partly drawn) [Compound 67], for which the 50% inhibitory concentration (IC50) in the experiment with RS4; 11 (setting [1]) and in the experiment on MOLT-4 (setting [2]) was under 20 nM each time.
